Experimental data reported in US10765674B2, “Prevention of HIV-infection” (Janssen Sciences Ireland Unlimited Company, priority 2005, dated 2020).
Read-outs that look alike come from different tables or passages of the source.

Assay: Plasma kinetics of TMC278 in beagle dogs after single intramuscular administration
Type: in vivo
Settings: single IM 2.5 mg/kg, aqueous 30% DMA/50% PEG400 solution; for half-life / Cmax / Tmax / AUC(0-t): im; for AUC(0-t): read-out: AUC0-312 h; for concentration at 0 h: 0 h (predose); for concentration at 0.5 h: 0.5 h after dose; for concentration at 1 h: 1 h after dose; for concentration at 2 h: 2 h after dose; for concentration at 4 h: 4 h after dose; for concentration at 8 h: 8 h after dose; for concentration at 24 h: 24 h after dose; for concentration at 32 h: 32 h after dose; for concentration at 48 h: 48 h after dose; for concentration at 72 h: 72 h after dose; for concentration at 96 h: 96 h after dose; for concentration at 144 h: 144 h after dose; for concentration at 192 h: 192 h after dose; for concentration at 240 h: 240 h after dose; for concentration at 312 h: 312 h after dose; for concentration at 36 day: day 36; for concentration at 50 day: day 50; for concentration at 64 day: day 64; for concentration at 78 day: day 78; for concentration at 92 day: day 92; for concentration at 106 day: day 106; for concentration at 120 day: day 120; for concentration at 134 day: day 134; for concentration at 148 day: day 148
Method: The present study was performed in order to study the plasma kinetics and the absolute bioavailability of TMC278 in beagle dogs after single intramuscular administration (IM) of an aqueous 30% dimethylacetamide (DMA)/50% polyethylene glycol 400 (PEG400) solution of TMC278 at 2.5 mg/kg. The dogs were dosed IM.
Two male beagle dogs (dog No. 16924 and 16854), approximately 3 years old and weighing between 11 and 12 kg at the start of the experimental phase, were used in the present experiment. The dogs were dosed intramuscularly at 0.1 ml/kg body weight by injecting the formulation in the left (dog No. 16924) or right (dog No. 16854) m. biceps femoris.
One day before dose administration, TMC278 was formulated in an aqueous 30% (w/v) DMA/50% (w/v) PEG400 solution at 25 mg/ml. The ingredients of the solution were: TMC278, DMA 30% (w/v), PEG 400 50% (w/v) and pyrogenic free water. The content of TMC278 in the formulation was checked using LC. The concentration of TMC278 in the formulation was 25 mg/ml.
Blood samples (4 ml on EDTA) were taken from a jugular vein from the dogs at 0 (=predose), 0.5, 1, 2, 4, 8, 24, 32, 48, 72, 96, 144, 192, 240 and 312 h after dose administration. After sampling, the blood samples were immediately placed on melting ice and protected from light. Blood samples were centrifuged at approximately 1900×g for 10 minutes at 5° C. to allow plasma separation. Immediately after separation, plasma samples were protected from light, placed on melting ice and stored at ≤−18° C. until analysis. Frozen plasma samples were transferred to the Bioanalytical Department. Since TMC278 was still detectable in the plasma samples at 312 h post-dose, additional blood samples of both dogs were collected on the days 36, 50, 64, 78, 92, 106, 120, 134 and 148. These samples were analogously processed and analysed.
The concentration of TMC278 in dog plasma was determined by a qualified research LC-MS/MS method after solid phase extraction (SPE). Plasma concentrations of TMC278 were determined after proper sample clean up. The samples (0.1 ml aliquots of plasma) were extracted using a solid phase extraction method (Bond Elut Certify solid phase columns, 130 mg, SPE, Varian). The SPE column was conditioned with 3 ml methanol, 3 ml water and 1 ml acetic acid 1 M.
After addition of 3 ml acetic acid to 0.1 ml aliquots of plasma, the samples were extracted on the column followed by washing the column with 1 ml water, 1 ml acetic acid 1 M and 3 ml methanol. The column was eluted with 3 ml methanol/NH4OH 25% (98:2, v/v). The extract was evaporated to dryness and reconstituted in 150 μl of ammonium formate 0.01 M (adjusted to pH 4 with formic acid)/methanol (50/50). 20 μl-aliquots were injected onto a reversed phase LC-column (100×4.6 mm ID, packed with 3 μm Hypersil C18 BDS) with a flow of 800 μl/min. The elution mixture was ammonium formate 0.01 M (adjusted to pH 4 with formic acid)/methanol (40:60, v/v). The flow-rate to the mass spectrometer was about 100 μl/min after splitting. LC-MS/MS analysis was carried out on an API-3000 system (Applied Biosystems), which was coupled to an HPLC-system.
Individual plasma concentration-time profiles were subjected to a non-compartmental pharmacokinetic analysis. Peak plasma concentrations (Cmax) and corresponding peak times (Tmax) were determined. The AUC from time 0 to time t (AUC0-t, where t is the time point associated with the last measurable concentration above the limit of quantification) was calculated by means of the linear/log trapezoidal rule: i.e. linear trapezoidal rule up to Tmax: AUC0-Tmax=Σ[(ti+1−ti). (Ci+Ci+1)/2], and log trapezoidal for the remainder of the curve: AUCTmax-t=Σ[(ti+1−ti). (Ci−Ci+1)/ln(Ci/Ci+1)], Ci and Ci+1 being the plasma concentrations at times ti and ti+1, respectively. […]

[1] = male, beagle, dog, plasma, 2.5 mg/kg, dog No. 16854
[2] = male, beagle, dog, plasma, 2.5 mg/kg, dog No. 16924
[3] = male, beagle, dog, plasma, 2.5 mg/kg, mean (n=2)
[4] = male, beagle, dog, plasma, intramuscular, 2.5 mg/kg, dog No. 16854
[5] = male, beagle, dog, plasma, intramuscular, 2.5 mg/kg, dog No. 16854, read-out: plasma concentration during the wash-out period
[6] = male, beagle, dog, plasma, intramuscular, 2.5 mg/kg, dog No. 16924
[7] = male, beagle, dog, plasma, intramuscular, 2.5 mg/kg, dog No. 16924, read-out: plasma concentration during the wash-out period
[8] = male, beagle, dog, plasma, intramuscular, 2.5 mg/kg, mean (n=2)
[9] = male, beagle, dog, plasma, intramuscular, 2.5 mg/kg, mean (n=2), read-out: plasma concentration during the wash-out period

## Cc1cc(C=CC#N)cc(C)c1Nc1ccnc(Nc2ccc(C#N)cc2)n1 [TMC278, 4-[[4-[[4-(2-cyanoethenyl)-2,6-dimethylphenyl]amino]-2-pyrimidinyl]-amino]benzonitrile]
Both dogs, days 36 to 148
  plasma levels during the wash-out period (range): 1.24 to 4.23 ng/mL
Dog No. 16924, day 272
  plasma concentration during the wash-out period: <1.00 ng/mL
male, beagle, dog, plasma, 2.5 mg/kg, dog No. 16854, half-life between 8 h and 24 h, read-out: t1/2, 8-24 h (converted)
  half-life: 8.9 h
[1]
  Cmax: 39.9 ng/mL
  Tmax: 8 h
  AUC(0-t): 2120 ng·h/mL
male, beagle, dog, plasma, 2.5 mg/kg, dog No. 16854, read-out: t1/2, 24-72 h (converted)
  half-life: 75.2 h
male, beagle, dog, plasma, 2.5 mg/kg, dog No. 16924, half-life between 1 h and 24 h, read-out: t1/2, 1-24 h (converted)
  half-life: 15.1 h
[2]
  Cmax: 23.8 ng/mL
  Tmax: 1 h
  AUC(0-t): 1600 ng·h/mL
male, beagle, dog, plasma, 2.5 mg/kg, dog No. 16924, read-out: t1/2, 24-72 h (converted)
  half-life: 51 h
[3]
  Cmax: 31.9 ng/mL
  Tmax: 5 h
  AUC(0-t): 1860 ng·h/mL
male, beagle, dog, plasma, 2.5 mg/kg, mean (n=2), read-out: t1/2, 24-72 h (converted)
  half-life: 63 h
[4]
  concentration at 0 h: < 1 ng/mL
  concentration at 0.5 h: 13.5 ng/mL
  concentration at 1 h: 17 ng/mL
  concentration at 2 h: 20.6 ng/mL
  concentration at 4 h: 27.2 ng/mL
  concentration at 8 h: 39.9 ng/mL
  concentration at 24 h: 11.4 ng/mL
  concentration at 32 h: 10.7 ng/mL
  concentration at 48 h: 9.03 ng/mL
  concentration at 72 h: 7.37 ng/mL
  concentration at 96 h: 6.4 ng/mL
  concentration at 144 h: 3.19 ng/mL
  concentration at 192 h: 2.8 ng/mL
  concentration at 240 h: 6.16 ng/mL
  concentration at 312 h: 4.24 ng/mL
[5]
  concentration at 36 day: 3.66 ng/mL
  concentration at 50 day: 4.1 ng/mL
  concentration at 64 day: 2.18 ng/mL
  concentration at 78 day: 2.62 ng/mL
  concentration at 92 day: 2.32 ng/mL
  concentration at 106 day: 2.02 ng/mL
  concentration at 120 day: 1.87 ng/mL
  concentration at 134 day: 1.67 ng/mL
  concentration at 148 day: 1.41 ng/mL
[6]
  concentration at 0 h: < 1 ng/mL
  concentration at 0.5 h: 21.3 ng/mL
  concentration at 1 h: 23.8 ng/mL
  concentration at 2 h: 20.9 ng/mL
  concentration at 4 h: 17.1 ng/mL
  concentration at 8 h: 15.1 ng/mL
  concentration at 24 h: 7.7 ng/mL
  concentration at 32 h: 6.65 ng/mL
  concentration at 48 h: 6.03 ng/mL
  concentration at 72 h: 3.9 ng/mL
  concentration at 96 h: 3.97 ng/mL
  concentration at 144 h: 3.65 ng/mL
  concentration at 192 h: 3.57 ng/mL
  concentration at 240 h: 4.38 ng/mL
  concentration at 312 h: 5.97 ng/mL
[7]
  concentration at 36 day: 3.05 ng/mL
  concentration at 50 day: 2.12 ng/mL
  concentration at 64 day: 2.42 ng/mL
  concentration at 78 day: 1.69 ng/mL
  concentration at 92 day: 2.51 ng/mL
  concentration at 106 day: 1.75 ng/mL
  concentration at 120 day: 4.23 ng/mL
  concentration at 134 day: 1.61 ng/mL
  concentration at 148 day: 1.24 ng/mL
male, beagle, dog, plasma, intramuscular, 2.5 mg/kg, dog No. 16924, day 272, read-out: plasma concentration during the wash-out period
  concentration at 272 day: < 1 ng/mL
[8]
  concentration at 0 h: < 1 ng/mL
  concentration at 0.5 h: 17.4 ng/mL
  concentration at 1 h: 20.4 ng/mL
  concentration at 2 h: 20.8 ng/mL
  concentration at 4 h: 22.2 ng/mL
  concentration at 8 h: 27.5 ng/mL
  concentration at 24 h: 9.55 ng/mL
  concentration at 32 h: 8.68 ng/mL
  concentration at 48 h: 7.53 ng/mL
  concentration at 72 h: 5.64 ng/mL
  concentration at 96 h: 5.19 ng/mL
  concentration at 144 h: 3.42 ng/mL
  concentration at 192 h: 3.19 ng/mL
  concentration at 240 h: 5.27 ng/mL
  concentration at 312 h: 5.11 ng/mL
[9]
  concentration at 36 day: 3.36 ng/mL
  concentration at 50 day: 3.11 ng/mL
  concentration at 64 day: 2.3 ng/mL
  concentration at 78 day: 2.16 ng/mL
  concentration at 92 day: 2.42 ng/mL
  concentration at 106 day: 1.89 ng/mL
  concentration at 120 day: 3.05 ng/mL
  concentration at 134 day: 1.64 ng/mL
  concentration at 148 day: 1.33 ng/mL
Mean (n=2)
  t1/2, 24-72 h: 63.1 h
